The structures appear in SMILES notation.

The test concerns the target Recombinant human ATX (Homo sapiens (Human), UniProt Q13822). In words: ATX inhibition assay (choline release, Amplex Red fluorescence). The test is classed as biochemical. The conditions noted are these: ATX 10 nM, LPC 18:1 10 μM, 37° C., 20 min pre-incubation; mean of n≧2. The method, then: Reagents—LPC (oleoyl (18:1)) was purchased from Avanti Polar Lipids (Alabaster, Ala.) and solubilized in methanol to 20 mM. Amplex Red was obtained from Invitrogen Life Technologies (Paisley, UK) and dissolved in DMSO to 10 mM. Choline oxidase and horseradish peroxidase (HRP) were obtained from Sigma Aldrich (Dorset, UK) and dissolved in HBSS to 20 U/ml and 200 U/ml respectively. All reagents were stored at −20° C. in single use aliquots. All experimental measurements were performed in assay buffer made up immediately prior to use (HBSS, 0.01% BSA essentially fatty acid free).
PerkinElmer EnVision (Fluorescence Intensity/Absorbance Monochromator) or Tecan Infinite 200 PRO series plate reader was used to detect change in fluorescent intensity.
Assessing ATX inhibition—ATX activity was determined by measurement of released choline in reactions containing ATX (10 nM), choline oxidase (0.1 U/ml), HRP (100 U/ml), amplex red (50 μM) and LPC 18:1 (10 μM). Compounds of the invention were prepared as 10 point serial dilutions from 1 μM in duplicate and pre-incubated with ATX at 37° C. for 20 minutes prior to the addition of remaining reagents. The liberated choline was measured from changes in fluorescence intensity (λex 530 nm, λem 590 nm) of the product resurofin at 37° C. every 2 minutes over a 40-minute period. ATX activity was measured as a slope of the linear portion of the progress curve, typically between 14 to 24 minutes.
Data analysis—Slope data was exported to Graphpad prism (Graphpad software, San Diego, Calif.) where data was fitted to equation 1. Y=Bottom+(Top-Bottom)/(1+10^((Log IC50−X)*HillSlope)) Equation 1: […]
As a reminder, the IC50 is the concentration at which inhibition is half-maximal. As for `Cc1nnn(Cc2cc(C(F)(F)F)ccc2OCC(=O)N2CCC(CCCCCc3c[nH]nn3)CC2)n1` [Example 154, 1-(4-(5-(1H-1,2,3-Triazol-4-yl)pentyl)piperidin-1-yl)-2-(2-((5-methyl-2H-tetrazol-2-yl)methyl)-4-(trifluoromethyl)phenoxy)ethanone], the IC50 came to 2.4 nM.
`Cc1nnn(Cc2cc(C(F)F)ccc2/C=C/C(=O)N2CCC(c3noc(C)n3)CC2)n1` [Example 55, (E)-3-(4-(Difluoromethyl)-2-((5-methyl-2H-tetrazol-2-yl)methy)phenyl)-1-(4-(5-methyl-1,2,4-oxadiazol-3-yl)piperidin-1-yl)prop-2-en-1-one]: the IC50 was determined as 8 nM.
With `Cc1ncn(C2CCN(C(=O)/C=C/c3ccc(Cl)cc3Cn3nnc(C)n3)CC2)n1` [Example 10, (E)-3-(4-Chloro-2-((5-methyl-2H-tetrazol-2-yl)methyl)phenyl)-1-(4-(3-methyl-1H-1,2,4-triazol-1-yl)piperidin-1-yl)prop-2-en-1-one], the half-inhibitory concentration (IC50) was 40 nM.
As to `Cc1cn(C2CCN(C(=O)/C=C/c3ccc(Cl)cc3Cn3nnc(C)n3)CC2)nn1` [Example 9, (E)-3-(4-Chloro-2-((5-methyl-2H-tetrazol-2-yl)methyl)phenyl)-1-(4-(4-methyl-1H-1,2,3-triazol-1-yl)piperidin-1-yl)prop-2-en-1-one], the IC50 is 100 nM.
The same measure for `Cc1nnn(Cc2cc(F)ccc2/C=C/C(=O)N2CCC(Cc3nnc(C)o3)CC2)n1` [Example 41, (E)-3-(4-Fluoro-2-((5-methyl-2H-tetrazol-2-yl)methyl)phenyl)-1-(4-((5-methyl-1,3,4-oxadiazol-2-yl)methyl)piperidin-1-yl)prop-2-en-1-one]: 654 nM; for `Cc1cnc(Cc2cc(Cl)ccc2/C=C/C(=O)N2CCC(Cc3nnc(C)o3)CC2)o1` [Example 45, (E)-3-(4-Chloro-2-((5-methyloxazol-2-yl)methyl)phenyl)-1-(4-((5-methyl-1,3,4-oxadiazol-2-yl)methyl)piperidin-1-yl)prop-2-en-1-one]: 644 nM.
The same measure for `Cc1nc(Cc2cc(Cl)ccc2/C=C/C(=O)N2CCN(Cc3ccc(F)cc3)C[C@H]2C)no1` [Example 144, (R,E)-3-(4-Chloro-2-((5-methyl-1,2,4-oxadiazol-3-yl)methyl)phenyl)-1-(4-(4-fluorobenzyl)-2-methylpiperazin-1-yl)prop-2-en-1-one]: 14 nM; for `Cc1nnn(Cc2cc(C(F)(F)F)ccc2/C=C/C(=O)N2CCC(NC(=O)CCCCCc3cnn[nH]3)CC2)n1` [Example 156, (E)-N-(1-(3-(2-((5-Methyl-2H-tetrazol-2-yl)methyl)-4-(trifluoromethyl)phenyl)acryloyl)piperidin-4-yl)-6-(1H-1,2,3-triazol-5-yl)hexanamide]: 5.3 nM.
The result for `CCc1nnc(C2CCN(C(=O)/C=C/c3ccc(Cl)cc3Cn3nnc(C)n3)CC2)o1` [Example 94, (E)-3-(4-Chloro-2-((5-methyl-2H-tetrazol-2-yl)methyl)phenyl)-1-(4-(5-ethyl-1,3,4-oxadiazol-2-yl)piperidin-1-yl)prop-2-en-1-one] reads 10 nM; that for `CC(=O)NC1CCN(C(=O)/C=C/c2ccc(Cl)cc2Cn2nnc(C)n2)CC1` [Example 125, (E)-N-(1-(3-(4-Chloro-2-((5-methyl-2H-tetrazol-2-yl)methyl)phenyl)acryloyl)piperidin-4-yl)acetamide], 110 nM; that for `Cc1nnn(Cc2cc(Cl)ccc2/C=C/C(=O)N2CCC(CNC(=O)CCc3cc(O)no3)CC2)n1` [Example 147, (E)-N-((1-(3-(4-Chloro-2-((5-methyl-2H-tetrazol-2-yl)methyl)phenyl)acryloyl)piperidin-4-yl)methyl)-3-(3-hydroxyisoxazol-5-yl)propanamide], 13 nM.
For `Cc1nnn(Cc2cc(Cl)ccc2/C=C/C(=O)N2CCN(C(=O)c3ccco3)CC2)n1` [Example 49.20, (E)-3-(4-Chloro-2-((5-methyl-2H-tetrazol-2-yl)methyl)phenyl)-1-(4-(furan-2-carbonyl)piperazin-1-yl)prop-2-en-1-one], the IC50 was 110 nM.
For the compound `Cc1nnn(Cc2cc(C(F)(F)F)ccc2/C=C/C(=O)N2CCC(c3nnc(C)o3)CC2)n1` [Example 57, (E)-1-(4-(5-Methyl-1,3,4-oxadiazol-2-yl)piperidin-1-yl)-3-(2-((5-methyl-2H-tetrazol-2-yl)methyl)-4-(trifluoromethyl)phenyl)prop-2-en-1-one], the IC50 is 8 nM.
The same measure for `CCS(=O)(=O)N1CCN(C(=O)/C=C/c2ccc(C(F)(F)F)cc2Cn2nnc(C)n2)CC1` [Example 102, (E)-1-(4-(Ethylsulfonyl)piperazin-1-yl)-3-(2-((5-methyl-2H-tetrazol-2-yl)methyl)-4-(trifluoromethyl)phenyl)prop-2-en-1-one]: 53 nM.
In the case of `COC(=O)C1CCN(C(=O)/C=C/c2ccc(C(F)(F)F)cc2Cn2nnc(C)n2)CC1` [Example 67, (E)-Methyl 1-(3-(2-((5-methyl-2H-tetrazol-2-yl)methyl)-4-(trifluoromethyl)phenyl)acryloyl)piperidine-4-carboxylate], the IC50 was 8.8 nM.
The same measure for `Cc1nnn(Cc2cc(C(F)(F)F)ccc2/C=C/C(=O)N2CCC(c3nnc(C4CC4)o3)CC2)n1` [Example 86, (E)-1-(4-(5-Cyclopropyl-1,3,4-oxadiazol-2-yl)piperidin-1-yl)-3-(2-((5-methyl-2H-tetrazol-2-yl)methyl)-4-(trifluoromethyl)phenyl)prop-2-en-1-one]: 4.8 nM; for `Cc1nnn(Cc2cc(Cl)ccc2/C=C/C(=O)N2CCC(CCc3nnc(C)o3)CC2)n1` [Example 20, (E)-3-(4-Chloro-2-((5-methyl-2H-tetrazol-2-yl)methyl)phenyl)-1-(4-(2-(5-methyl-1,3,4-oxadiazol-2-yl)ethyl)piperidin-1-yl)prop-2-en-1-one]: 163 nM.
On to `Cc1nnn(Cc2cc(C(F)(F)F)ccc2/C=C/C(=O)N2CCC(N(C)S(=O)(=O)C3CC3)CC2)n1` [Example 112, (E)-N-Methyl-N-(1-(3-(2-((5-methyl-2H-tetrazol-2-yl)methyl)-4-(trifluoromethyl)phenyl)acryloyl)piperidin-4-yl)cyclopropanesulfonamide], for which the IC50 is 14 nM.
With `Cc1nnn(Cc2cc(Cl)ccc2/C=C/C(=O)N2CC[C@@H](c3nnc(C)o3)C[C@H]2C)n1` [Example 98, (E)-3-(4-Chloro-2-((5-methyl-2H-tetrazol-2-yl)methyl)phenyl)-1-((2R,4R)-2-methyl-4-(5-methyl-1,3,4-oxadiazol-2-yl)piperidin-1-yl)prop-2-en-1-one], the IC50 was found to be 66 nM.
On to `COc1ccc(CN(C)C2CCN(C(=O)/C=C/c3ccc(C(F)(F)F)cc3Cn3nnc(C)n3)CC2)cc1` [Example 119, (E)-1-(4-((4-Methoxybenzyl)(methyl)amino)piperidin-1-yl)-3-(2-((5-methyl-2H-tetrazol-2-yl)methyl)-4-(trifluoromethyl)phenyl)prop-2-en-1-one], for which the IC50 came out at 47 nM.
With `Cc1nnn(Cc2cc(Cl)ccc2/C=C/C(=O)N2CCN(c3ccn(C)n3)C[C@H]2C)n1` [Example 49.21, (R,E)-3-(4-Chloro-2-((5-methyl-2H-tetrazol-2-yl)methyl)phenyl)-1-(2-methyl-4-(1-methyl-1H-pyrazol-3-yl)piperazin-1-yl)prop-2-en-1-one], the IC50 came out at 16 nM.
The result for `Cc1cnn(C2CCN(C(=O)/C=C/c3ccc(Cl)cc3Cn3nnc(C)n3)CC2)n1` [Example 25, (E)-3-(4-Chloro-2-((5-methyl-2H-tetrazol-2-yl)methyl)phenyl)-1-(4-(4-methyl-2H-1,2,3-triazol-2-yl)piperidin-1-yl)prop-2-en-1-one] reads 8.5 nM; that for `Cc1cnn(CC2CCN(C(=O)/C=C/c3ccc(Cl)cc3Cn3nnc(C)n3)CC2)n1` [Example 120, (E)-3-(4-Chloro-2-((5-methyl-2H-tetrazol-2-yl)methyl)phenyl)-1-(4-((4-methyl-2H-1,2,3-triazol-2-yl)methyl)piperidin-1-yl)prop-2-en-1-one], 8.1 nM.
The same measure for `CCNC(=O)COC1CCCN(C(=O)/C=C/c2ccc(Cl)cc2Cn2nnc(C)n2)C1` (centres unmarked) [Example 49.22, (E)-2-((1-(3-(4-Chloro-2-((5-methyl-2H-tetrazol-2-yl)methyl)phenyl)acryloyl)piperidin-3-yl)oxy)-N-ethylacetamide]: 110 nM; for `Cc1nnn(Cc2cc(Cl)ccc2/C=C/C(=O)N2CCCCC2c2nc(C(C)C)no2)n1` (single isomer, unassigned) [Example 30a, (R or S, E)-3-(4-Chloro-2-((5-methyl-2H-tetrazol-2-yl)methyl)phenyl)-1-(2-(3-isopropyl-1,2,4-oxadiazol-5-yl)piperidin-1-yl)prop-2-en-1-one]: 4.9 nM; for `CNC(=O)[C@@H]1CCCCN1C(=O)/C=C/c1ccc(C(F)(F)F)cc1Cn1nnc(C)n1` [Example 6, (S,E)-N-Methyl-1-(3-(2-((5-methyl-2H-tetrazol-2-yl)methyl)-4-(trifluoromethyl)phenyl)acryloyl)piperidine-2-carboxamide]: 18 nM.
